Test results published in patent US5169769A, “Method of hydroxylating substituted 3-aminopyridinones using mammalian tissue” (Merck & Co., Inc., priority 1991, dated 1992).

Target: T1, recombinant HIV reverse transcriptase (HIV RTR) (Human immunodeficiency virus type 1 group M subtype B, UniProt P04585)
T1 construct: recombinant HIV reverse transcriptase (HIV RTR)
Test: Reverse Transcriptase Assay: incorporation of tritiated deoxyguanosine monophosphate into acid-precipitable cDNA
Format: biochemical
Conditions: purified HIV RTR; poly r(C).oligo d(G)12-18 and dGTP at about Km; 37° C. for 45 minutes; read-out: calculated IC50
Description: Reverse Transcriptase Assay
The assay measures the incorporation of tritiated deoxyguanosine monophosphate by recombinant HIV reverse transcriptase (HIV RTR) (or other RT) into acid-precipitable cDNA at the Km values of dGTP and poly r(C).cndot.oligo d(G)12-18. Compounds (I) and (II) inhibit this incorporation.
Thirty uL of a reaction mixture containing equal volumes of: 500 mM Tris.cndot.HCl (pH 8.2), 300 mM MgCl2, 1200 mM KCl, 10 mM DTT, 400 μg/mL poly r(c).cndot.oligo d(G) [prepared by dissolving 1.5 mg (25 U) poly r(C).cndot.oligo d(G) in 1.5 ml sterile distilled H2 O and diluting to 400 μg/ml], 0.1 μCi/μl [^3 H] dGTP, 160 μM dGTP, were added to 10 μl sterile distilled H2 O, 2.5 μl of potential inhibitor. Ten μL of 3.2 nM purified HIV RTR were added to start the reaction. The mixture was incubated at 37° C. for 45 minutes.
After incubation was complete, the tubes were cooled in ice for 5 minutes. Ice-cold 13% TCA containing 10 mM NaPPi (200 μl) was added and the mixture incubated on ice for 30 minutes. The precipitated cDNA was removed by filtration using presoaked glass filters [TCA, NaPPi ]. The precipitate was then washed with 1N HCl, 10 mM NaPPi. The filter discs were then counted in a scintillation counter. […]
Compounds (I) and (II) were evaluated using the methodology described above.

Row | Compound | IC50 [nM]
1 | Cc1[nH]c(=O)c(NCc2nc3c(C)ccc(C)c3o2)cc1C(C)O (centres unmarked) [Compound (I), 3-[(4,7-dimethylbenzoxazol-2-yl)methylamino]-5-(1-hydroxyethyl)-6-methyl-2(1H)-pyridinone] | ~405
2 | CCc1cc(NCc2nc3c(C)ccc(C)c3o2)c(=O)[nH]c1CO [Compound (II), 3-[(4,7-dimethylbenzoxazol-2-yl)methylamino]-5-ethyl-6-hydroxymethyl-2(1H)-pyridinone] | ~33
